The record followed here is patent US20230079045A1 (priority 2019, published 2023).

pEC50: −log10 of the molar value.

This experiment deals with IFV A/PR/8/34. The experiment in a line: cytopathic effect (CPE) antiviral test in MDCK cells, IFV A/PR/8/34. As to conditions: unidentified influenza virus, PR/8, MDCK, 120 h, read-out: EC50(IFV A/PR/8/34). It is filed as cell-based, influenza virus. Background: Damage to the host cells serves as the signal in cytopathic effect assays.

In the case of `O=C(Nc1ccc2nc(-c3ccnc(C(=O)N4CCN(C(c5ccccc5)c5nnn(C(F)F)n5)CC4)c3)oc2c1)[C@@H]1C[C@@H]1F` (mixture of isomers) [Compound 93, (1S,2S)—N-(2-(2-(4-((R/S)-(2-(difluoromethyl)-2H-tetrazol-5-yl)(phenyl)methyl)piperazine-1-carbonyl)pyridin-4-yl)benzo[d]oxazol-6-yl)-2-fluorocyclopropane-1-carboxamide], the pEC50 was 7.80.
The same measure for `O=C(Nc1ccc2oc(-c3ccnc(C(=O)N4CCN(C(c5ccsc5)c5nnn(C(F)F)n5)CC4)c3)nc2c1)[C@@H]1C[C@@H]1F` (mixture of isomers) [Compound 122, (1S,2S)—N-(2-(2-(4-((R/S)-(2-(difluoromethyl)-2H-tetrazol-5-yl)(thiophen-3-yl)methyl)piperazine-1-carbonyl)pyridin-4-yl)benzo[d]oxazol-5-yl)-2-fluorocyclopropane-1-carboxamide]: 7.72; for `O=C(Nc1ccc2oc(-c3ccnc(C(=O)N4CCC(C(c5ccccc5)n5nnc(C(F)F)n5)CC4)c3)nc2c1)[C@@H]1C[C@@H]1F` (mixture of isomers) [Compound 138, (1S,2S)—N-(2-(2-(4-((R/S)-(5-(difluoromethyl)-2H-tetrazol-2-yl)(phenyl)methyl)piperidine-1-carbonyl)pyridin-4-yl)benzo[d]oxazol-5-yl)-2-fluorocyclopropanecarboxamide]: 8.40; for `O=C(Nc1ccc2oc(-c3ccnc(C(=O)N4CCC(C(c5ccccc5)c5nnn(C(F)F)n5)CC4)c3)nc2c1)[C@@H]1C[C@@H]1F` (mixture of isomers) [Compound 168, (1S,2S)—N-(2-(2-(4-((R/S)-(2-(difluoromethyl)-2H-tetrazol-5-yl)(phenyl)methyl)piperidine-1-carbonyl)pyridin-4-yl)benzo[d]oxazol-5-yl)-2-fluorocyclopropane-1-carboxamide]: 8.70.
Turning to `Cc1nnn(C(c2ccccc2)C2CCN(C(=O)c3cc(-c4nc5cc(NC(=O)[C@H]6C[C@@H]6F)ccc5o4)ccn3)CC2)n1` (mixture of isomers) [Compound 184, (1R,2S)-2-fluoro-N-(2-(2-(4-((R/S)-(5-methyl-2H-tetrazol-2-yl)(phenyl)methyl)piperidine-1-carbonyl)pyridin-4-yl)benzo[d]oxazol-5-yl)cyclopropanecarboxamide], the pEC50 is 7.85.
For the compound `Cc1nnn(C(c2ccccc2)C2CCN(C(=O)c3cc(-c4nc5cc(NC(=O)[C@H]6C[C@H]6F)ccc5o4)ccn3)CC2)n1` (mixture of isomers) [Compound 185, (1R,2R)-2-fluoro-N-(2-(2-(4-((R/S)-(5-methyl-2H-tetrazol-2-yl)(phenyl)methyl)piperidine-1-carbonyl)pyridin-4-yl)benzo[d]oxazol-5-yl)cyclopropanecarboxamide], the pEC50 was 7.62.
The same measure for `Cc1nnn(C(c2ccccc2)C2CCN(C(=O)c3cc(-c4nc5cc(NC(=O)[C@@H]6C[C@H]6F)ccc5o4)ccn3)CC2)n1` (mixture of isomers) [Compound 190, (1S,2R)-2-fluoro-N-(2-(2-(4-((R/S)-(5-methyl-2H-tetrazol-2-yl)(phenyl)methyl)piperidine-1-carbonyl)pyridin-4-yl)benzo[d]oxazol-5-yl)cyclopropane-1-carboxamide]: 7.96; for `O=C(Nc1ccc2oc(-c3ccnc(C(=O)N4CCC(C(c5ccccc5)n5nnc(CO)n5)CC4)c3)nc2c1)[C@@H]1C[C@@H]1F` (mixture of isomers) [Compound 197, (1S,2S)-2-fluoro-N-(2-(2-(4-((R/S)-(5-(hydroxymethyl)-2H-tetrazol-2-yl)(phenyl)methyl)piperidine-1-carbonyl)pyridin-4-yl)benzo[d]oxazol-5-yl)cyclopropane-1-carboxamide]: 9.05; for `CC(=O)OCc1nnn(C(c2ccccc2)C2CCN(C(=O)c3cc(-c4nc5cc(NC(=O)[C@@H]6C[C@@H]6F)ccc5o4)ccn3)CC2)n1` (mixture of isomers) [Compound 199, (2-((R/S)-(1-(4-(5-((1S,2S)-2-fluorocyclopropane-1-carboxamido)benzo[d]oxazol-2-yl)picolinoyl)piperidin-4-yl)(phenyl)methyl)-2H-tetrazol-5-yl)methyl acetate]: 8.74.
Consider `COCc1nnn(C(c2ccccc2)C2CCN(C(=O)c3cc(-c4nc5cc(NC(=O)[C@@H]6C[C@@H]6F)ccc5o4)ccn3)CC2)n1` (mixture of isomers) [Compound 200, (1S,2S)-2-fluoro-N-(2-(2-(4-((R/S)-(5-(methoxymethyl)-2H-tetrazol-2-yl)(phenyl)methyl)piperidine-1-carbonyl)pyridin-4-yl)benzo[d]oxazol-5-yl)cyclopropane-1-carboxamide], for which the pEC50 was 8.68.
The same measure for `Cc1nnn(C(c2ccccc2)C2CC3CCC(C2)N3C(=O)c2cc(-c3nc4cc(NC(=O)[C@@H]5C[C@@H]5F)ccc4o3)ccn2)n1` (mixture of isomers) [Compound 208, (1S,2S)-2-fluoro-N-(2-(2-(3-((R/S)-(5-methyl-2H-tetrazol-2-yl)(phenyl)methyl)-8-azabicyclo[3.2.1]octane-8-carbonyl)pyridin-4-yl)benzo[d]oxazol-5-yl)cyclopropanecarboxamide]: 8.16; for `NCc1nnn(C(c2ccccc2)C2CCN(C(=O)c3cc(-c4nc5cc(NC(=O)[C@@H]6C[C@@H]6F)ccc5o4)ccn3)CC2)n1` (mixture of isomers) [Compound 210, (1S,2S)—N-(2-(2-(4-((R/S)-(5-(aminomethyl)-2H-tetrazol-2-yl)(phenyl)methyl)piperidine-1-carbonyl)pyridin-4-yl)benzo[d]oxazol-5-yl)-2-fluorocyclopropane-1-carboxamide]: 9.10; for `CNCc1nnn(C(c2ccccc2)C2CCN(C(=O)c3cc(-c4nc5cc(NC(=O)[C@@H]6C[C@@H]6F)ccc5o4)ccn3)CC2)n1` (mixture of isomers) [Compound 211, (1S,2S)-2-fluoro-N-(2-(2-(4-((R/S)-(5-((methylamino)methyl)-2H-tetrazol-2-yl)(phenyl)methyl)piperidine-1-carbonyl)pyridin-4-yl)benzo[d]oxazol-5-yl)cyclopropane-1-carboxamide]: 9.52.
As to `O=C(Nc1ccc2oc(-c3ccnc(C(=O)N4CCN(C(c5ccccc5)c5nnn(CCO)n5)CC4)c3)nc2c1)[C@@H]1C[C@@H]1F` (mixture of isomers) [Compound 212, (1S,2S)-2-fluoro-N-(2-(2-(4-((R/S)-(2-(2-hydroxyethyl)-2H-tetrazol-5-yl)(phenyl)methyl)piperazine-1-carbonyl)pyridin-4-yl)benzo[d]oxazol-5-yl)cyclopropane-1-carboxamide], the pEC50 was 8.66.
For the compound `COCn1nnc(C(c2ccccc2)N2CCN(C(=O)c3cc(-c4nc5cc(NC(=O)[C@@H]6C[C@@H]6F)ccc5o4)ccn3)CC2)n1` (mixture of isomers) [Compound 214, (1S,2S)-2-fluoro-N-(2-(2-(4-((R/S)(2-(methoxymethyl)-2H-tetrazol-5-yl)(phenyl)methyl)piperazine-1-carbonyl)pyridin-4-yl)benzo[d]oxazol-5-yl)cyclopropane-1-carboxamide], the pEC50 is 8.72.
`Cc1nnn(C(c2ccccc2)C2CCN(C(=O)c3nccc(-c4nc5cc(NC(=O)[C@@H]6C[C@@H]6F)ccc5o4)c3F)CC2)n1` (mixture of isomers) [Compound 219, (1S,2S)-2-fluoro-N-(2-(3-fluoro-2-(4-((R/S)-(5-methyl-2H-tetrazol-2-yl)(phenyl)methyl)piperidine-1-carbonyl)pyridin-4-yl)benzo[d]oxazol-5-yl)cyclopropanecarboxamide]: the pEC50 was 8.72.
In the case of `O=C(c1cc(-c2nc3cc(-c4ccns4)ccc3o2)ccn1)N1CCN(C(c2ccccc2)c2nnn(C(F)F)n2)CC1` (racemic) [Compound 115, (R/S)-(4-((2-(difluoromethyl)-2H-tetrazol-5-yl)(phenyl)methyl)piperazin-1-yl)(4-(5-(isothiazol-5-yl)benzo[d]oxazol-2-yl)pyridin-2-yl)methanone], the pEC50 was 7.19.
The same measure for `O=C(c1cc(-c2nc3ccc(NC(=O)C4(F)CC4)cc3o2)ccn1)N1CCN(C(c2ccccc2)c2nnn(C(F)F)n2)CC1` (racemic) [Compound 125, (R/S)—N-(2-(2-(4-((2-(difluoromethyl)-2H-tetrazol-5-yl)(phenyl)methyl)piperazine-1-carbonyl)pyridin-4-yl)benzo[d]oxazol-6-yl)-1-fluorocyclopropane-1-carboxamide]: 7.92; for `Cn1cncc1-c1ccc2oc(-c3ccnc(C(=O)N4CCN(C(c5ccccc5)c5nnn(C(F)F)n5)CC4)c3)nc2c1` (racemic) [Compound 126, (R/S)-(4-((2-(difluoromethyl)-2H-tetrazol-5-yl)(phenyl)methyl)piperazin-1-yl)(4-(5-(1-methyl-1H-imidazol-5-yl)benzo[d]oxazol-2-yl)pyridin-2-yl)methanone]: 9.00.
The same measure for `CCn1cc(-c2ccc3oc(-c4ccnc(C(=O)N5CCN(C(c6ccccc6)c6nnn(C(F)F)n6)CC5)c4)nc3c2)cn1` (racemic) [Compound 127, (R/S)-(4-((2-(difluoromethyl)-2H-tetrazol-5-yl)(phenyl)methyl)piperazin-1-yl)(4-(5-(1-ethyl-1H-pyrazol-4-yl)benzo[d]oxazol-2-yl)pyridin-2-yl)methanone]: 8.40.
With `O=C(c1cc(-c2nc3cc(NC(=O)C4(F)CC4)ccc3o2)ccn1)N1CCN(C(c2ccccc2)c2nnn(C(F)F)n2)CC1` (racemic) [Compound 129], the pEC50 was 7.92.
The same measure for `Cn1cc(-c2ccc3oc(-c4ccnc(C(=O)N5CCN(C(c6ccccc6)c6nnn(C(F)F)n6)CC5)c4)nc3c2)nn1` (racemic) [Compound 130, (R/S)-(4-((2-(difluoromethyl)-2H-tetrazol-5-yl)(phenyl)methyl)piperazin-1-yl)(4-(5-(1-methyl-1H-1,2,3-triazol-4-yl)benzo[d]oxazol-2-yl)pyridin-2-yl)methanone]: 7.54.
